Assay results from US6583179B2, “Substituted aminoalkylamide derivatives as antagonists of follicle stimulating hormone” (Ortho-McNeil Pharmaceutical, Inc., priority 1999, dated 2003).

Experiments:
Rat Granulosa Cell = assay: Rat granulosa cell FSH-stimulated cAMP production; assay type: cell-based; conditions: inhibition of cAMP produced by EC70 dose of FSH (1.4 nM), maximum concentration 50 μM
Experimental: Insulin, diethylstilbesterol, androstenedione, forskolin and DMSO were purchased from Sigma (St. Louis, Mo.). Fungizone, penicillin/streptomycin, charcoal-treated heat inactivated fetal bovine serum (CT-HI-FBS) and Dulbecco's Modified Eagle Medium:Hams F12 medium containing 15 mM Hepes and L-glutamine (DMEM:F12), were purchased from GIBCO BRL (Grand Island, N.Y.).
Ovine FSH (NIADDK-oFSH-17; FSH potency=20 NIH-FSH-S1 U/mg; LH contamination=0.04 times NIH-LH-S1) was received from Ogden Bioservices Corporation, Rockville, Md. Human FSH (Fertinex), was purchased from Serono Pharmaceutical (Framingham, Mass.). Human chorionic gonadotropin (hCG) was purchased from Sigma (St Louis, Mo.).
Immature intact female rats (Wistar-derived strain; 21-23 days old) were implanted with a single pellet (Innovative Research of America, Sarasota, Fla.) containing 2.5 mg diethylstilbesterol (DES) for 3 days. On the third day, the animals were sacrificed, the ovaries were removed, and the granulosa cells were isolated essentially as described in Haynes-Johnson et al., Biol. Reprod., 61 (1), 147-153, (1999). Granulosa cells were plated at a density of 300,000 cells per ml with 0.2 ml added to each well of 96 well culture dishes (Corning, N.Y.). Cultures were incubated at 37° C. in a humidified incubator (95% air, 5% CO2) overnight (18 hours).
Androstenedione (100,000X) was prepared by dissolving the steroid in 100% ethanol, and was subsequently diluted to a final concentration of 10^−7M containing 0.1% ethanol in assay media. The assay media was serum-free, DES-free, insulin-free media, prepared by adding 5 mL pen-strep,1.5 mL fungizone and 5 μL androstenedione to 493.5 mL DMEM F-12 media.
Test compounds were solubilized in 30% dimethyl sulfoxide (DMSO) at a concentration of 10 mM before diluting to appropriate concentrations in assay medium. The final DMSO concentration in the treated cells and in the control cells was 0.75%.
Test plates containing the granulosa cells were preincubated for 18 hours at 37° C. with 95% air, 5% CO2, 100% humidity. The spent media was removed and 50 μl assay media (DMEM:F12) containing 2 mM IBMX (3-isobutyl-1-methyl-xanthine) was added to the cells. Compounds (25 μl) in the appropriate concentration were added followed 5 minutes later by an EC70 dose of FSH (25 μl; 50 ng/ml; 1.4 nM). After 30 minutes @ 22.5° C. (room temperature) the reaction was terminated by addition of 25 μL 0.5 N hydrochloric acid to each well. The amount of cAMP produced was measured by radioimmunoassay in a FlashPlate (DuPont, Boston, Mass.). To each flash plate 60 μL flash plate buffer was added followed by 40 μL acidified cell sample or cAMP standard, followed with the addition of 100 μl ^125l-cAMP trace. The FlashPlates were sealed, incubated overnight @ room temperature, and counted in a Packard TopCount (Packard Instrument Co., Meriden, Conn.). The cAMP radioimmunoassay results were calculated using DPM conversion and log-logit transformation of % binding (Excel program).

[1] = test system: mature cycling female Wistar rats; assay: Interruption of 4-day estrus cycle; assay type: in vivo, rat; conditions: 20 mg/kg BID oral through 2 estrus cycles; for Estradiol Concentration / Progesterone Concentration: blood on morning of estrus; for # Ovulated Eggs: eggs in the oviduct
Experimental: The estrus cycles of mature cycling female Wistar rats (250 g) were monitored for 2 consecutive estrus cycles to select animals with regular 4-day estrus cycles. The animals were randomly assigned to treatment groups on the morning of estrus. Starting on the morning of estrus and continuing through 2 estrus cycles, the animals orally dosed with vehicle or test compound at a concentration of 20 mg/kg; BID. At the end of the second estrus cycle, blood samples were collected by orbital puncture on the morning of estrus. The animals were then sacrificed, and the number of ovulated eggs in the oviduct were counted.

[2] = test system: immature male Wistar rats; assay: Effects on spermatogenesis in immature male rats; assay type: in vivo, rat; conditions: 20 mg/kg BID for 25 days; for Serum Testosterone (t = 3 hr, d = 25): 3 hr after dosing; for Mating Sperm: animals with sperm / animals
Experimental: Twenty-one day old immature male Wistar rats (Charles River) were treated with FSH antagonist at a concentration of 20 mg/kg BID for 25 days. On the penultimate day of treatment, blood samples were collected by orbital puncture immediately prior to oral dosing, and 3 hours after dosing into Vacutainers containing EDTA. On the last day of treatment, blood samples were again collected prior to time of compound administration. The concentrations of LH, FSH and testosterone were measured in the plasma. Testosterone was measured using a Coat-A-Count kit (Diagnostic Products Corp.) and luteinizing hormone and follicle stimulating hormone concentrations were measured following previously established. At the end of the treatment period, the animals were sacrificed, testes and prostates were collected and weighed, and the testes were prepared for histological examination. The presence of sperm in testes were evaluated by hematoxylin and eosin staining, and in separate slides with a BERG stain (REF, 1963).

EC50 (Rat Granulosa Cell) | Structure (SMILES) | Estradiol Concentration [1] | Progesterone Concentration [1] | # Ovulated Eggs [1] | Prostate Weight [2] | Testes Weight [2] | Serum Testosterone (t = 3 hr, d = 25) [2] | Mating Sperm [2]
0.02 µM | C[C@@H](CN(CC(=O)NCc1ccc(CN)cc1)S(=O)(=O)c1ccc(-c2ccccc2Cl)cc1)c1ccccc1 [Compound 198] | 20.1 ± 4.4 | 3.6 ± 0.9 | 14.0 | 1.6 ± 0.2 | 8.8 ± 0.2 | 3.6 ± 0.6 | 3/4
0.01 µM | Cc1ccccc1-c1ccc(S(=O)(=O)N(CC(=O)NCc2ccc(CN)cc2)C[C@@H](C)c2ccccc2)cc1 [Compound 215] | 22.2 ± 4.2 | 2.6 ± 0.6 | 16.3 | 1.8 ± 0.1 | 8.7 ± 0.5 | 4.9 ± 0.7 | 1/4
